Results as given in US20250154115A1, “ARYLBENZOISOXAZOLE COMPOUNDS AS IP6K AND IPMK INHIBITORS AND METHODS OF USE THEREOF” (THE UNIVERSITY OF NORTH CAROLINA AT CHAPEL HILL, priority 2022, published 2025).
Values belong to the molecule of their own block, whether it stands above or below them.

What was measured:
Type in all cases: biochemical
IP6K1 = IP6K1 (Homo sapiens (Human), UniProt Q92551); experiment: Enzyme-coupled assay of IP6K1 activity (Dipp1-coupled, malachite green Pi release)
Protocol: (§1) […] The cells were disrupted using a constant cell disruption system (Constant Systems) under 20 kPsi.
(§2) Pi release was determined with a malachite green colorimetric assay.^45 Where indicated, TNP (Cayman Chemical) was added to the assays (FIG. 2A-E).

IP6K2 = IP6K2 (Homo sapiens (Human), UniProt Q9UHH9); experiment: Enzyme-coupled assay of IP6K2 activity (Dipp1-coupled, malachite green Pi release)
IP6K2, sequence (Q9UHH9 whole entry): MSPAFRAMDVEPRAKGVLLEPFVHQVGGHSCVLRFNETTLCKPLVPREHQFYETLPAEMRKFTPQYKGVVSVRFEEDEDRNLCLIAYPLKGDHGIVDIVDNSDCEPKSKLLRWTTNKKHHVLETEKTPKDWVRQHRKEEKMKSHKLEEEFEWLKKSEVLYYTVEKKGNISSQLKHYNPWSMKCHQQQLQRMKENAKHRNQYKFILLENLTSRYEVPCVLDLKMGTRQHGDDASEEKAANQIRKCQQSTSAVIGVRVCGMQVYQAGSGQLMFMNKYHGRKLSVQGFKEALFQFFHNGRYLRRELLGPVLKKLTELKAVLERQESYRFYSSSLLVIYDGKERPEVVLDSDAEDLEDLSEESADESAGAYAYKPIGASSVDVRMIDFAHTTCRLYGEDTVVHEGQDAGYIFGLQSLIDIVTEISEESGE
Protocol: as §1, §2

IPMK = IPMK (Homo sapiens (Human), UniProt Q8NFU5); experiment: Enzyme-coupled assay, IPMK IC50
IPMK, sequence (Q8NFU5 whole entry, species assumed): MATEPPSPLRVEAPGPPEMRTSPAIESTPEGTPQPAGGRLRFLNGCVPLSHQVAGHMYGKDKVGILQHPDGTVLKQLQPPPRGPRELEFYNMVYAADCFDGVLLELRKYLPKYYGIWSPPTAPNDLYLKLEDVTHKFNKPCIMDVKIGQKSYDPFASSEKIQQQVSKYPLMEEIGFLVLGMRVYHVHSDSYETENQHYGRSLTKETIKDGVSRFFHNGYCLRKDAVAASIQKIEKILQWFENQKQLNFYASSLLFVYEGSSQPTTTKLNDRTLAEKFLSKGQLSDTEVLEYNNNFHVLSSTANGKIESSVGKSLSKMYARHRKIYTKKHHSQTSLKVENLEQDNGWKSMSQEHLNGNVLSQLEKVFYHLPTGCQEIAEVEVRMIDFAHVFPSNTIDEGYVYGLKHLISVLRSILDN

[1] = determined from enzyme-coupled assays

IP6K1, sequence (Q92551 whole entry): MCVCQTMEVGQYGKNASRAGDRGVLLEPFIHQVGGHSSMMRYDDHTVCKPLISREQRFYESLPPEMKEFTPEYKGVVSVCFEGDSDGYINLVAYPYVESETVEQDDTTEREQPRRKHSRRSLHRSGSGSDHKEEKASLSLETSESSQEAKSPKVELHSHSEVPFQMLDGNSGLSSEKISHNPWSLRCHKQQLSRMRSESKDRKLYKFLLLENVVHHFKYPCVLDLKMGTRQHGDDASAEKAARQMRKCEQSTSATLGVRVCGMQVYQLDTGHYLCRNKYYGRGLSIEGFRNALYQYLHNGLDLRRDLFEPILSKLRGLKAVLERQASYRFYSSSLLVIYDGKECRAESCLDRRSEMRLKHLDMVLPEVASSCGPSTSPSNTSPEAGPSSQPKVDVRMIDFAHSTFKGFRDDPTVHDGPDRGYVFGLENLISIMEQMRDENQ

IC50 (IP6K1; enzyme-coupled assay, Table 4): 0.01 to 0.1 µM
IC50 (IP6K2; enzyme-coupled assay, Table 4): 0.01 to 0.1 µM
Compound: Nc1cccc(-c2cccc(-c3onc4ccc(-c5nnn[nH]5)cc34)c2)c1 [Compound 97]

IC50 (IP6K1; enzyme-coupled assay, Table 2): 0.1 to 1 µM
IC50 (IP6K2; enzyme-coupled assay, Table 2): 0.1 to 1 µM
IC50 (IPMK; enzyme-coupled assay, Table 2): 1 to 100 µM
Compound: CNC(=O)c1ccc2noc(-c3cccc(Oc4ncc(Cl)cc4Cl)c3)c2c1 [Compound 31]

IC50 (IP6K1; enzyme-coupled assay, Table 2): 0.1 to 1 µM
IC50 (IP6K2; enzyme-coupled assay, Table 2): 0.1 to 1 µM
IC50 (IPMK; enzyme-coupled assay, Table 2): 0.1 to 1 µM
Compound: COc1ccc(COc2cncc(-c3cccc(-c4onc5ccc(C(=O)O)cc45)c3)c2)cc1 [Compound 52]

IC50 (IP6K1; enzyme-coupled assay, Table 4): 0.01 to 0.1 µM
Compound: O=C(C1CC1)N1CCC(c2cccc(-c3onc4ccc(-c5nnn[nH]5)cc34)c2)CC1 [Compound 111]

IC50 (IP6K1; enzyme-coupled assay, Table 2): 1 to 100 µM
IC50 (IP6K2; enzyme-coupled assay, Table 2): 0.1 to 1 µM
IC50 (IPMK; enzyme-coupled assay, Table 2): 0.1 to 1 µM
Compound: CC(C)C(=O)Nc1cccc(-c2onc3ccc(C(=O)O)cc23)c1 [Compound 50]

IC50 (IP6K1; enzyme-coupled assay, Table 2): 1 to 100 µM
IC50 (IP6K2; enzyme-coupled assay, Table 2): 1 to 100 µM
IPMK IC50 (IPMK; enzyme-coupled assay, Table 2): −
Compound: CN1CCC(NC(=O)c2ccc(-c3onc4ccc(C(=O)O)cc34)cc2)CC1 [Compound 40]

IC50 (IP6K1; enzyme-coupled assay, Table 4): 0.01 to 0.1 µM
IC50 (IP6K2; enzyme-coupled assay, Table 4): 0.01 to 0.1 µM
Compound: Nc1cccc(-c2ccc(-c3onc4ccc(-c5nnn[nH]5)cc34)cc2)c1 [Compound 95]

IC50 (IP6K1; enzyme-coupled assay, Table 4): 0.01 to 0.1 µM
Compound: CC(=O)N1CCC(c2cccc(-c3onc4ccc(-c5nnn[nH]5)cc34)c2)CC1 [Compound 106]

IC50 (IP6K1; enzyme-coupled assay, Table 4): 0.01 to 0.1 µM
Compound: O=C1CC(C(=O)N2CCC(c3cccc(-c4onc5ccc(-c6nnn[nH]6)cc45)c3)CC2)C1 [Compound 110]

IC50 (IP6K1; enzyme-coupled assay, Table 2): 0.1 to 1 µM
IC50 (IP6K2; enzyme-coupled assay, Table 2): 0.1 to 1 µM
Compound: O=C(O)c1ccc2noc(-c3cccc(-c4cncc(O)c4)c3)c2c1 [Compound 53]

IC50 (IP6K1; enzyme-coupled assay, Table 1): 1 to 100 µM
IC50 (IP6K2; enzyme-coupled assay, Table 1): 1 to 100 µM
Compound: CCOC(=O)/C=C/c1ccc2noc(-c3ccccc3)c2c1 [Compound 7]

IC50 (IP6K1; enzyme-coupled assay, Table 4): 0.01 to 0.1 µM
IC50 (IP6K2; enzyme-coupled assay, Table 4): 0.01 to 0.1 µM
Compound: CC(C)(C)OC(=O)Nc1cccc(-c2cccc(-c3onc4ccc(-c5nnn[nH]5)cc34)c2)c1 [Compound 96]

The remaining lines, values behind:

Compound: O=c1[nH]c(-c2ccc3noc(-c4cccc(OC5CCN(C6COC6)CC5)c4)c3c2)no1 [Cmpd 134]
IC50 (IP6K1; [1]): 0.1 to 1 µM
IC50 (IP6K2; [1]): 0.1 to 1 µM
IC50 (IPMK; [1]): 0.1 to 1 µM

Compound: c1cc2noc(-c3ccc(C4CCN(C5CCC5)CC4)cc3)c2cc1-c1nnn[nH]1 [Compound 118]
IC50 (IP6K1; enzyme-coupled assay, Table 4): 0.01 to 0.1 µM

Compound: CC(=O)N1CCC(c2ccc(-c3onc4ccc(-c5nnn[nH]5)cc34)cc2)CC1 [Compound 119]
IC50 (IP6K1; enzyme-coupled assay, Table 4): 0.1 to 1 µM

Compound: CC1(C(=O)N2CCC(c3cccc(-c4onc5ccc(-c6nnn[nH]6)cc45)c3)CC2)COC1 [Compound 108]
IC50 (IP6K1; enzyme-coupled assay, Table 4): 0.1 to 1 µM

Compound: CC(C)C(=O)N1CCC(c2ccc(-c3onc4ccc(-c5nnn[nH]5)cc34)cc2)CC1 [Compound 120]
IC50 (IP6K1; enzyme-coupled assay, Table 4): 0.1 to 1 µM

Compound: O=C(Nc1ccc(-c2onc3ccc(-c4nnn[nH]4)cc23)cc1)C1CCNCC1 [Compound 99]
IC50 (IP6K1; enzyme-coupled assay, Table 4): 0.1 to 1 µM

Compound: O=c1[nH]c(-c2ccc3noc(-c4cccc(OC5CCN(CCO)CC5)c4)c3c2)no1 [Cmpd 135]
IC50 (IP6K1; [1]): 0.1 to 1 µM
IC50 (IP6K2; [1]): 0.1 to 1 µM
IC50 (IPMK; [1]): 0.01 to 0.1 µM

Compound: CC(C)C(=O)N1CCC(c2cccc(-c3onc4ccc(-c5nnn[nH]5)cc34)c2)CC1 [Compound 109]
IC50 (IP6K1; enzyme-coupled assay, Table 4): 0.01 to 0.1 µM

Compound: O=C(C1CCCC1)N1CCC(Oc2cccc(-c3onc4ccc(-c5nnn[nH]5)cc34)c2)CC1 [Compound 94]
IC50 (IP6K1; enzyme-coupled assay, Table 4): 0.01 to 0.1 µM
IC50 (IP6K2; enzyme-coupled assay, Table 4): 0.01 to 0.1 µM

Compound: O=C(C1CC1)N1CCC(c2ccc(-c3onc4ccc(-c5nnn[nH]5)cc34)cc2)CC1 [Compound 122]
IC50 (IP6K1; enzyme-coupled assay, Table 4): 0.1 to 1 µM

Compound: CC(C)N1CCC(Oc2cccc(-c3onc4ccc(-c5nnn[nH]5)cc34)c2)CC1 [Compound 87]
IC50 (IP6K1; enzyme-coupled assay, Table 4): 0.01 to 0.1 µM
IC50 (IP6K2; enzyme-coupled assay, Table 4): 0.01 to 0.1 µM
IC50 (IPMK; enzyme-coupled assay, Table 4): 0.01 to 0.1 µM

Compound: O=c1[nH]c(-c2ccc3noc(-c4cccc(OC5CCNCC5)c4)c3c2)no1 [Cmpd 129]
IC50 (IP6K1; [1]): 0.01 to 0.1 µM
IC50 (IP6K2; [1]): 0.01 to 0.1 µM
IC50 (IPMK; [1]): < 0.01 µM

Compound: O=C(Nc1ccc(-c2onc3ccc(-c4noc(=O)[nH]4)cc23)cc1)[C@@H]1CCCN1 [Cmpd 136]
IC50 (IP6K1; [1]): 0.1 to 1 µM
IC50 (IP6K2; [1]): 0.1 to 1 µM
IC50 (IPMK; [1]): 0.01 to 0.1 µM

Compound: CC1(C(=O)N2CCC(Oc3cccc(-c4onc5ccc(-c6nnn[nH]6)cc45)c3)CC2)COC1 [Compound 93]
IC50 (IP6K1; enzyme-coupled assay, Table 4): 0.1 to 1 µM
IC50 (IP6K2; enzyme-coupled assay, Table 4): 0.01 to 0.1 µM

Compound: O=C(Nc1ccc(-c2onc3ccc(-c4nnn[nH]4)cc23)cc1)C1CCNC1 (stereo not drawn) [Compound 101]
IC50 (IP6K1; enzyme-coupled assay, Table 4): 0.1 to 1 µM

Compound: O=C(Nc1ccc(-c2onc3ccc(-c4noc(=O)[nH]4)cc23)cc1)C1CNC1 [Cmpd 137]
IC50 (IP6K1; [1]): 0.1 to 1 µM
IC50 (IP6K2; [1]): 1 to 100 µM
IC50 (IPMK; [1]): 0.1 to 1 µM

Compound: O=c1[nH]c(-c2ccc3noc(-c4cccc(OC5CCN(CC6CC6)CC5)c4)c3c2)no1 [Cmpd 132]
IC50 (IP6K1; [1]): 0.1 to 1 µM
IC50 (IP6K2; [1]): 0.1 to 1 µM
IC50 (IPMK; [1]): 0.01 to 0.1 µM

Compound: O=C(Nc1ccc(-c2onc3ccc(-c4nnn[nH]4)cc23)cc1)[C@@H]1CCCN1 [Compound 100]
IC50 (IP6K1; enzyme-coupled assay, Table 4): 0.1 to 1 µM

Compound: COc1ccc(-c2onc3ccc(/C=C/C(=O)O)cc23)cc1 [Compound 13]
IC50 (IP6K1; enzyme-coupled assay, Table 1): 0.1 to 1 µM
IC50 (IP6K2; enzyme-coupled assay, Table 1): 1 to 100 µM

Compound: c1cc(OC2CCN(C3CCC3)CC2)cc(-c2onc3ccc(-c4nnn[nH]4)cc23)c1 [Compound 62]
IC50 (IP6K2; enzyme-coupled assay, Table 4): 0.1 to 1 µM
IC50 (IPMK; enzyme-coupled assay, Table 4): 0.01 to 0.1 µM
